The values that follow are results of earlier work, collected in US20090012088A1 (priority 2005, published 2009).

Data set [1] has as its target PARG (Bos taurus, UniProt O02776). Particulars: cited from earlier work.
The subject of data set [2] is rat model of focal cerebral ischemia. Particulars: cited from earlier work.
Data set [3] concerns the target T1, PARG (Homo sapiens, UniProt Q86W56). Particulars: cited from earlier work.
In data set [4] the target is T1, PARG. Particulars: 32P-PAR assay; KM of PAR 1.7 μM; cited from earlier work.
For a further data set, the system named is 34I cells. Particulars: cited from earlier work.
Data set [5] addresses T1, PARG. Particulars: tannins; read-out: in vitro IC50 for PARG; cited from earlier work.
For data set [6], the system named is human neuroblastoma cells. Particulars: cited from earlier work.

T1 sequence (Q86W56 whole entry, species assumed): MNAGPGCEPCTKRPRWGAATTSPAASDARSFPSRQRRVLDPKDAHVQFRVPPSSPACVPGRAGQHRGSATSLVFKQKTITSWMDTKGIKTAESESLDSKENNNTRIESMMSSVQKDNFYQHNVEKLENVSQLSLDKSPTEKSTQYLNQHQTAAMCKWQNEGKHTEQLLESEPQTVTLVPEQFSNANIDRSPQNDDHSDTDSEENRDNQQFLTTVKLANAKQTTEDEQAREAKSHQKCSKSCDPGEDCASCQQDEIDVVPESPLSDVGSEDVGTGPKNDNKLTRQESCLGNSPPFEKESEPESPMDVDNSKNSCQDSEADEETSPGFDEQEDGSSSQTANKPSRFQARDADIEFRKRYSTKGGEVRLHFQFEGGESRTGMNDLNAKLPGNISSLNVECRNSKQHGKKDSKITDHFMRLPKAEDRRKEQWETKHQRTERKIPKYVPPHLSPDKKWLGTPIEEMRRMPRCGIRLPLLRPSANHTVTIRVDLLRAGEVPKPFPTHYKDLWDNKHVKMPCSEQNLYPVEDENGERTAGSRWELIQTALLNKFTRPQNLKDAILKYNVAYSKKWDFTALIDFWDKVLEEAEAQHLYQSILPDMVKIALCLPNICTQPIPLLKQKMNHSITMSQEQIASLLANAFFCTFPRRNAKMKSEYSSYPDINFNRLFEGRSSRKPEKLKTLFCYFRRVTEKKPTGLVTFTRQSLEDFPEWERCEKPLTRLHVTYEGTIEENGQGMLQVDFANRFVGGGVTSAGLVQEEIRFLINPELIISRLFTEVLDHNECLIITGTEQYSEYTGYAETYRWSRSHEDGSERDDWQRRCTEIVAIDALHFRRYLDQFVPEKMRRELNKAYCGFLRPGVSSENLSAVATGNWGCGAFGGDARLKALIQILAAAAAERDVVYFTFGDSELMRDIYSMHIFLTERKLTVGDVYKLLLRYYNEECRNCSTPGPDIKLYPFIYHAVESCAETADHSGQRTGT
Sequence of PARG (Bos taurus, UniProt O02776) (O02776 whole entry): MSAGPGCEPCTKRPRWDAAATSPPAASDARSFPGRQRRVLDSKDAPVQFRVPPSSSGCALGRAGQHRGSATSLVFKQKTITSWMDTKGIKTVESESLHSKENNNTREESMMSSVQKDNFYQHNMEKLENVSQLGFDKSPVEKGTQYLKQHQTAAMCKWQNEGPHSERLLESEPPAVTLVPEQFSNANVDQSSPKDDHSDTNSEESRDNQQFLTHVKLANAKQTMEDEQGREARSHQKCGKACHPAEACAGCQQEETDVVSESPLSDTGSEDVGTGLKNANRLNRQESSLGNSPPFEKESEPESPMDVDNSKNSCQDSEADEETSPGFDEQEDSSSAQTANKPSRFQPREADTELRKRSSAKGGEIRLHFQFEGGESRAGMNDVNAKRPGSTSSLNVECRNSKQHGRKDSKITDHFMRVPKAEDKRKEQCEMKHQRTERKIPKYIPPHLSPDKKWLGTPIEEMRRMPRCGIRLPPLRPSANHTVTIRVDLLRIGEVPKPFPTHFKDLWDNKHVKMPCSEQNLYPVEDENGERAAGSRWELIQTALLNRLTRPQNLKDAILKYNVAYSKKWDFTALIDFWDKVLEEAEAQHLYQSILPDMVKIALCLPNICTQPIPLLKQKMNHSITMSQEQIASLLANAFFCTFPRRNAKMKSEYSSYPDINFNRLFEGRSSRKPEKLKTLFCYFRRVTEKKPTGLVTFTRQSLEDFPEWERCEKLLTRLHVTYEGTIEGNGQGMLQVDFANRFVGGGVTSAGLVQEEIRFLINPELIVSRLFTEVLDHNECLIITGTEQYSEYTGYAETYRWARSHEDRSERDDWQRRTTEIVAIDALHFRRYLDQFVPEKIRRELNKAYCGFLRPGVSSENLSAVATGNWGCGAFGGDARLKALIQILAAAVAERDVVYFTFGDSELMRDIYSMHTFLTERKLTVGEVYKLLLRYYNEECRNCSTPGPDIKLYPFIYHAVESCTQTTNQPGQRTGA

Broadly, the IC50 is the concentration at which inhibition is half-maximal. For `Nc1ncnc2c1ncn2[C@@H]1O[C@H](COP(=O)(O)OP(=O)(O)OC[C@H]2OC(O)[C@H](O)[C@@H]2O)[C@@H](O)[C@H]1O` (some centres unmarked) [ADP-ribose], the IC50 at PARG [1] (substrate analogues, FIG. 9) is 120 µM.
For `O=C(NCCCc1ccccc1)c1ccc2c(c1)C(=O)c1cc(C(=O)NCCCc3ccccc3)ccc1-2` [GPI 16552, 2,7-Bis[N-(3-phenyl-propyl)carbamoyl]-9-Oxo-9H-fluorene], the “Reduction of total infarct volume” value in data set [2] (30-minute pre-ischemia or 1- or 2-hour post-ischemia treatment) is 47-53%. In data set [2] (rat, in vivo), the “Protection in cortical areas” value is listed as 43-59% and the “Protection in subcortical areas” value is 28-40%.
Turning to `CCC(C)CC1CCC(O)(C(C)(O)C(=O)NC2C(=O)N3NCCCC3C(=O)N(O)C(C)C(=O)NCC(=O)N3NCCCC3C(=O)N(O)C(C)C(=O)OC2C(C)C)OC1C` (centres unmarked) [PD 124,966], on PARG [3], the “IC50 for PARG” value is 40 µg/mL.
In general, Ki refers to a measure of affinity in units of concentration, obtained from inhibition or displacement. For the compound `CCN(CC)CCOc1ccc2c(c1)C(=O)c1cc(OCCN(CC)CC)ccc1-2` [Tilorone], the Ki on PARG [4] was ~7 µM.
For `CCOc1ccc2nc3cc(N)ccc3c(N)c2c1` [ethacridine], the Ki on PARG [4] is < 7 µM.
Take `O=C(OC[C@H]1O[C@@H](OC(=O)c2cc(O)c(O)c(O)c2)[C@@H]2OC(=O)c3cc(O)c(O)c(O)c3-c3c(cc(O)c(O)c3O)C(=O)O[C@H]2[C@@H]1OC(=O)c1cc(O)c(O)c(O)c1Oc1cc2c(c(O)c1O)-c1c(cc(O)c(O)c1O)C(=O)O[C@H]1[C@@H]3OC(=O)c4cc(Oc5c(C(=O)O[C@H]6[C@@H]7OC(=O)c8cc(O)c(O)c(O)c8-c8c(cc(O)c(O)c8O)C(=O)O[C@H]7[C@H](OC(=O)c7cc(O)c(O)c(O)c7)O[C@@H]6COC(=O)c6cc(O)c(O)c(O)c6)cc(O)c(O)c5O)c(O)c(O)c4-c4c(cc(O)c(O)c4O)C(=O)O[C@H]3[C@H](OC(=O)c3cc(O)c(O)c(O)c3)O[C@@H]1COC2=O)c1cc(O)c(O)c(O)c1` [nobotanin E]: in the data set with 34I cells, the “Inhibition of PAR catabolism in intact cells” value (shortened to “Inhibition of PAR catabolism”) is reported as “little inhibitory effect”.
As for `O=C(OCC1OC(OC(=O)c2cc(O)c(O)c(O)c2)C2OC(=O)c3cc(O)c(O)c(O)c3-c3c(cc(O)c(O)c3O)C(=O)OC2C1OC(=O)c1cc(O)c(O)c(O)c1Oc1cc2c(c(O)c1O)-c1c(cc(O)c(O)c1O)C(=O)OC1C(COC2=O)OC(OC(=O)c2cc(O)c(O)c(O)c2)C2OC(=O)c3cc(O)c(O)c(O)c3-c3c(cc(Oc4c(C(=O)OC5C(COC(=O)c6cc(O)c(O)c(O)c6)OC(OC(=O)c6cc(O)c(O)c(O)c6)C6OC(=O)c7cc(O)c(O)c(O)c7-c7c(cc(Oc8c(C(=O)OC9OC%10COC(=O)c%11cc(O)c(O)c(O)c%11-c%11c(cc(O)c(O)c%11O)C(=O)OC%10C%10OC(=O)c%11cc(O)c(O)c(O)c%11-c%11c(cc(O)c(O)c%11O)C(=O)OC9%10)cc(O)c(O)c8O)c(O)c7O)C(=O)OC56)cc(O)c(O)c4O)c(O)c3O)C(=O)OC12)c1cc(O)c(O)c(O)c1` (centres unmarked) [nobotanin K], in the data set with 34I cells, the “Inhibition of PAR catabolism” value is reported as “little inhibitory effect”. The IC50 on PARG [5] was 0.44 µM.
In the case of `Nc1ccc2cc3ccc(N)cc3nc2c1` [profavine], the inhibition constant Ki on PARG [4] is 36 µM.
For `C=CCN1CCc2nc(N)sc2CC1` [talipexole], the “Concentration required for protection” value in data set [6] is 1 mM.
Take Oenothein B: the IC50 on PARG [5] is 3.8 µM.
With “adenosine diphosphate (hydroxymethyl)pyrrolidinediol [ADP-HPD]”, the “IC50 lower than that of ADP-ribose” value on PARG [1] is recorded as 1000 fold.
Consider nobotanin B, for which the “Inhibition of PAR catabolism” value in the data set with 34I cells is given as “concentration-dependent inhibition of PAR catabolism”. For the same compound, the IC50 on PARG [5] is 4.8 µM.
For pargamicin, the “IC50 for PARG” value on PARG [3] is 28 µg/mL.
